ChEMBL document CHEMBL1862790, “Optimisation of fenarimol series for the treatment of Chagas disease”
pIC50: −log10 of the molar value.

Assays:
[1] = test system: Trypanosoma cruzi; test: microbe, parasite or virus in culture; assay type: functional, Tulahuen LacZ, Clone C4
[2] = test system: Trypanosoma cruzi; test: microbe, parasite or virus in culture; assay type: functional, organism-based, Tulahuen LacZ, Clone C4
[3] = DNDI: Cytotoxicity against L-6 rat myoblasts from skeletal muscle cells; conditions: L6 rat skeletal muscle myoblast cells
[4] = Trypanosoma cruzi, Tulahuen LacZ, Clone C4

Row | IC90 [1, 4] | pIC50 [2, 4] | IC90 [1] | pIC50 [2] | Structure (SMILES) | pIC50 ([3]; IC50) | pIC50 [3]
1 | 86 nM | 7.37 | – | – | O=C(c1ccccc1)N1CCC(CN(c2ccc(C(F)(F)F)cc2)c2cccnc2)CC1 | 4.29 | –
2 | 36 nM | 7.77 | – | – | CCCCC(O)(c1ccc(OC(C)C)cc1)c1cccnc1 (stereo not drawn) | 4.25 | –
3 | 180 nM | 7.26 | – | – | CC(C)CC(=O)N1CCN(C(c2ccc(Cl)cc2)c2cccnc2)CC1 (stereo not drawn) | < 4.00 | –
4 | > 1000 nM | < 6.00 | – | – | CC(C)c1ccc(S(=O)(=O)NC(c2ccc(C(F)(F)F)cc2)c2cnccn2)cc1 (stereo not drawn) | 4.22 | –
5 | 8700 nM | 5.94 | – | – | COc1ccccc1C(O)(c1ccc(Cl)cc1)c1cncnc1 (stereo not drawn) | < 4.00 | –
6 | > 1000 nM | 6.23 | – | – | O=C(NC(c1ccc(C(F)(F)F)cc1)c1cnccn1)c1ccc(C(F)(F)F)cc1 (stereo not drawn) | 4.21 | –
7 | > 10000 nM | 5.05 | – | – | CC(C)CC(=O)NC(c1ccc(C(F)(F)F)cc1)c1cnccn1 (stereo not drawn) | < 4.00 | –
8 | 378 nM | 6.72 | – | – | Cc1noc(N2CCN(C(c3ccc(C(F)(F)F)cc3)c3cncnc3)CC2)n1 (stereo not drawn) | < 4.00 | –
9 | 40 nM | 8.00 | – | – | N#Cc1ccc(C(c2cccnc2)N2CCC(NC(=O)c3ccc(F)cc3F)CC2)cc1 (stereo not drawn) | < 4.00 | –
10 | 21000 nM | 5.65 | – | – | CC(C)C(O)(c1ccc(Cl)cc1)c1cncnc1 (stereo not drawn) | < 4.00 | –
11 | 104 nM | 7.29 | – | – | Cc1noc(C)c1C(=O)NC1CCN(C(c2ccc(C#N)cc2)c2cccnc2)CC1 (stereo not drawn) | < 4.00 | –
12 | 584 nM | 6.78 | – | – | Cc1nocc1C(=O)N1CCC(NC(c2ccc(C(F)(F)F)cc2)c2cccnc2)CC1 (stereo not drawn) | < 4.00 | –
13 | 2100 nM | 6.10 | – | – | CC(C)CNC(c1ccc(C(F)(F)F)cc1)c1cnccn1 (stereo not drawn) | < 4.00 | –
14 | 168 nM | 7.16 | – | – | Cc1nnc(N2CCC(NC(c3ccc(C(F)(F)F)cc3)c3cccnc3)CC2)s1 (stereo not drawn) | < 4.00 | –
15 | 620 nM | 6.62 | – | – | CC(C)(C)CC(=O)N1CCN(C(c2ccc(Cl)cc2)c2cncnc2)CC1 (stereo not drawn) | < 4.00 | –
16 | 2780 nM | 6.04 | – | – | NC(=O)c1cccc(C(O)(c2ccc(Cl)cc2)c2cncnc2)c1 (stereo not drawn) | < 4.00 | –
17 | > 1000 nM | < 6.00 | – | – | O=S(=O)(NC(c1ccc(C(F)(F)F)cc1)c1cnccn1)c1ccc(Cl)cc1 (stereo not drawn) | 4.25 | –
18 | 940 nM | 6.35 | – | – | CS(=O)(=O)N1CCC(CNC(c2ccc(C(F)(F)F)cc2)c2cnccn2)CC1 (stereo not drawn) | < 4.00 | –
19 | 934 nM | 6.30 | – | – | CCn1nc(C)cc1C(=O)NC1CCN(C(c2ccc(C#N)cc2)c2cccnc2)CC1 (stereo not drawn) | < 4.00 | –
20 | 268 nM | 7.18 | – | – | Cc1cc(C(=O)N2CCC(NC(c3ccc(C(F)(F)F)cc3)c3cccnc3)CC2)nn1C (stereo not drawn) | 4.23 | –
21 | 540 nM | 6.85 | – | – | Cc1ncoc1C(=O)N1CCC(NC(c2ccc(C(F)(F)F)cc2)c2cccnc2)CC1 (stereo not drawn) | < 4.00 | –
22 | 24.9 nM | 8.13 | – | – | N#Cc1ccccc1N1CCC(NC(c2cccnc2)c2ccc(Cl)cc2F)CC1 (stereo not drawn) | 4.40 | –

Row | IC90 [1, 4] | pIC50 [2, 4] | IC90 [1] | pIC50 [2] | Structure (SMILES) | pIC50 ([3]; IC50) | pIC50 [3]
23 | 400 nM | 6.80 | – | – | O=C(NCc1ccccc1)c1cccc(C(O)(c2ccc(Cl)cc2)c2cccnc2)c1 (stereo not drawn) | 4.08 | –
24 | > 1000 nM | < 6.00 | – | – | CN(C)CCOc1ncc(C(O)(c2ccc(Cl)cc2)c2cccnc2)cn1 (stereo not drawn) | < 4.00 | –
25 | 720 nM | 6.72 | – | – | O=C(c1ccccc1)N1CC(NC(c2ccc(C(F)(F)F)cc2)c2cccnc2)C1 (stereo not drawn) | 4.08 | –
26 | > 1000 nM | < 6.00 | – | – | Cc1noc(C)c1C(O)(c1ccc(Cl)cc1)c1ccc(C(F)(F)F)cc1 (stereo not drawn) | 4.24 | –
27 | 32 nM | 7.92 | 33 nM | 7.74 | N#Cc1ccc(C(O)(c2ccc(C(F)(F)F)cc2)c2cccnc2)cc1 (stereo not drawn) | 4.20 | –
28 | 2760 nM | 6.01 | – | – | CS(=O)(=O)N1CCC(NC(c2ccc(C(F)(F)F)cc2)c2cnccn2)CC1 (stereo not drawn) | < 4.00 | –
29 | 6230 nM | 6.18 | – | – | Clc1ccc(C(NCCN2CCOCC2)(c2cccnc2)c2ccccc2Cl)cc1 (stereo not drawn) | 4.25 | –
30 | 68 nM | 7.57 | – | – | CC(C)(C)OC(=O)N1CCN(C(c2ccc(Cl)cc2)c2cccnc2)CC1 (stereo not drawn) | 4.32 | –
31 | 7590 nM | 5.40 | – | – | OC(c1ccc(C(F)(F)F)cc1)(c1ccc(C(F)(F)F)cc1)c1cc2ccccc2[nH]1 | 4.94 | –
32 | > 1000 nM | 6.19 | – | – | CC(C)CC(Nc1cccnc1)c1ccc(Cl)cc1 (stereo not drawn) | 4.25 | –
33 | 798 nM | 6.49 | – | – | O=C(N1CCN(C(c2ccc(C(F)(F)F)cc2)c2cccnc2)CC1)C(F)(F)F (stereo not drawn) | 4.20 | –
34 | 55.5 nM | 7.77 | – | – | N#Cc1ccc(C(c2cccnc2)N2CCC(NC(=O)c3cccc(F)c3F)CC2)cc1 (stereo not drawn) | < 4.00 | –
35 | 104 nM | 7.65 | – | – | O=C(NC1CCN(C(c2cncnc2)c2ccc(Cl)cc2F)CC1)c1cc(F)ccc1F (stereo not drawn) | 4.13 | –
36 | 700 nM | 6.35 | – | – | CCCCC(NCC1CCCCC1)c1cccnc1 (stereo not drawn) | < 4.00 | –
37 | 377 nM | 7.12 | – | – | Cc1cc(C(=O)NC2CCN(C(c3cncnc3)c3ccc(Cl)cc3F)CC2)no1 (stereo not drawn) | < 4.00 | –
38 | 105 nM | 8.30 | – | – | OC(c1cccnc1)(c1cccs1)c1ccc(Cl)cc1F (stereo not drawn) | < 4.00 | –
39 | 280 nM | 6.89 | – | – | CC(C)(C)OC(=O)N1CCN(C(c2ccc(Cl)cc2)c2cncnc2)CC1 (stereo not drawn) | < 4.00 | –
40 | 550 nM | 6.68 | – | – | CC(C)c1ccc(S(=O)(=O)N2CCC(NC(c3cnccn3)c3ccc(F)cc3F)CC2)cc1 (stereo not drawn) | 4.66 | –
41 | 100 nM | 7.52 | – | – | O=C(NC1CCCCC1)N1CCC(NC(c2ccc(Cl)cc2)c2cccnc2)CC1 (stereo not drawn) | < 4.00 | –
42 | 47 nM | 7.72 | – | – | CC(C)(C)c1cc(N2CCC(NC(c3ccc(Cl)cc3)c3cccnc3)CC2)[nH]n1 (stereo not drawn) | 4.30 | –
43 | 332 nM | 7.60 | – | – | OC(c1ccc(Cl)cc1)(c1cccnc1)c1cnc(OCC2CC2)nc1 (stereo not drawn) | 4.22 | –
44 | 27 nM | 8.03 | – | – | Cc1cc(C(=O)NC2CCN(C(c3ccc(C(F)(F)F)cc3)c3cccnc3)CC2)no1 (stereo not drawn) | 4.32 | –

Row | IC90 [1, 4] | pIC50 [2, 4] | IC90 [1] | pIC50 [2] | Structure (SMILES) | pIC50 ([3]; IC50) | pIC50 [3]
45 | 3410 nM | 6.00 | – | – | CN(C)C(=O)C1CCN(C(c2ccc(C(F)(F)F)cc2)c2cnccn2)CC1 (stereo not drawn) | < 4.00 | –
46 | 640 nM | 6.70 | – | – | Cc1cc(C(=O)N2CCC(NC(c3ccc(C(F)(F)F)cc3)c3cccnc3)CC2)[nH]n1 (stereo not drawn) | < 4.00 | –
47 | > 1000 nM | < 6.00 | – | – | N#CC(c1ccc(Cl)cc1)c1ccccn1 (stereo not drawn) | < 4.00 | –
48 | 600 nM | 6.64 | – | – | CCC(C(C)O)N1CCC(NC(c2ccc(Cl)cc2)c2cccnc2)CC1 (stereo not drawn) | < 4.00 | –
49 | 320 nM | 6.82 | – | – | O=C(NC1CCCC1)c1cccc(C(O)(c2ccc(Cl)cc2)c2cccnc2)c1 (stereo not drawn) | 4.22 | –
50 | 5420 nM | 5.72 | – | – | CCS(=O)(=O)NC1CCN(C(c2cnccn2)c2ccc(F)cc2F)CC1 (stereo not drawn) | < 4.00 | –
51 | > 1000 nM | 6.22 | – | – | CS(=O)(=O)NC1CCN(C(c2ccc(C#N)cc2)c2cccnc2)CC1 (stereo not drawn) | < 4.00 | –
52 | 700 nM | 6.59 | – | – | O=C(c1ccc(Cl)cc1)N1CCC(NC(c2cnccn2)c2ccc(F)cc2F)CC1 (stereo not drawn) | < 4.00 | –
53 | 690 nM | 6.60 | – | – | O=C(NC(c1ccc(Cl)cc1)c1cccnc1)c1ccc(C(F)(F)F)cc1 (stereo not drawn) | 4.20 | –
54 | 358 nM | 6.86 | – | – | N#Cc1ccc(C(c2cccnc2)N2CCC(NC(=O)c3nccs3)CC2)cc1 (stereo not drawn) | < 4.00 | –
55 | 29.6 nM | 8.16 | – | – | N#Cc1ccc(C(c2cccnc2)N2CCC(NC(=O)c3ccc(F)cc3C(F)(F)F)CC2)cc1 (stereo not drawn) | 4.11 | –
56 | 210 nM | 7.02 | – | – | Clc1ccc(C(NCc2ccccc2)c2cccnc2)cc1 (stereo not drawn) | < 4.00 | –
57 | 650 nM | 6.60 | – | – | OC(c1ccc(Cl)cc1)(c1cncnc1)c1cscn1 (stereo not drawn) | < 4.00 | –
58 | > 100 nM | 7.12 | – | – | CC(c1ccc(C(F)(F)F)cc1)N1CCC(NC(c2cccnc2)c2ccc(Cl)cc2F)CC1 (stereo not drawn) | 4.71 | –
59 | 80000 nM | 5.97 | – | – | Clc1ccc(C(c2cncnc2)c2ccccc2Cl)cc1 (stereo not drawn) | < 4.00 | –
60 | 76000 nM | 7.15 | – | – | OC(c1ccc(Cl)cc1)(c1cncnc1)c1cccs1 (stereo not drawn) | < 4.00 | –
61 | 36 nM | 7.74 | – | – | CC(C)c1ccc(S(=O)(=O)N2CCN(C(c3cncnc3)c3ccc(Cl)cc3F)CC2)cc1 (stereo not drawn) | < 4.00 | –
62 | 48 nM | 7.67 | 55.5 nM | 7.73 | N#Cc1ccc(C(c2cccnc2)N2CCC(NC(=O)c3c(F)cccc3F)CC2)cc1 (stereo not drawn) | < 4.00 | –
63 | 340 nM | 6.77 | – | – | CN(C)C(=O)N1CCC(NC(c2ccc(Cl)cc2)c2cccnc2)CC1 (stereo not drawn) | < 4.00 | –
64 | 610 nM | 6.66 | – | – | O=C(N1CCCCC1)N1CCN(C(c2ccc(Cl)cc2)c2cncnc2)CC1 (stereo not drawn) | < 4.00 | –
65 | > 1000 nM | 6.17 | – | – | CS(=O)(=O)N1CCC(NC(c2cnccn2)c2ccc(F)cc2F)CC1 (stereo not drawn) | < 4.00 | –
66 | 328 nM | 7.00 | – | – | CCn1cc(C(NC2CCN(c3ccc(F)c(F)c3)CC2)c2cccnc2)cn1 (stereo not drawn) | 4.21 | –

Row | Structure (SMILES) | IC90 [1, 4] | pIC50 [2, 4] | IC90 [1] | pIC50 [2] | pIC50 ([3]; IC50) | pIC50 [3]
67 | O=C(Cc1ccccc1)N1CCN(C(c2ccc(Cl)cc2)c2cncnc2)CC1 (stereo not drawn) | 850 nM | 6.30 | – | – | – | 4.16
68 | CC(C)Oc1ccc(C(O)(c2cccnc2)c2ccccc2F)cc1 (stereo not drawn) | 240 nM | 8.48 | – | – | – | 4.13
69 | OC(c1ccc(Cl)cc1)(c1cccnc1)c1ccc(Cl)cc1F (stereo not drawn) | 31 nM | 7.85 | 32 nM | 7.72 | – | < 4.00
